Experimental data as given in patent publication US11534441B2, “MAP4K1 inhibitors” (Blueprint Medicines Corporation, priority 2020, dated 2022).

Legend:
[1] = target: MAP4K1 (HPK1) (Homo sapiens (Human), UniProt Q92918); experiment: MAP4K1 (HPK1) biochemical enzymatic activity, electrophoretic mobility shift (EZReader 2), ATP at APPKM (26 μM)
Description: MAP4K1 (HPK1) and relevant off-target enzymatic activity was monitored using the Perkin Elmer electrophoretic mobility shift technology platform—the EZReader 2. […] Within the linear, steady-state phase of the kinase enzymatic reaction, the mixed pool of phosphorylated (product) and non-phosphorylated (substrate) peptides was passed through the microfluidic system of the PerkinElmer EZ Reader 2, under an applied electric potential difference. The presence of the phosphate group on the product peptide provided a difference in mass and charge between that of the substrate peptide, resulting in a separation of the substrate and product pools in the sample (Perrin et al. 2010). As the product and substrate peptide mixture passes the lasers within the instrument, these pools are detected (λex=488 nm, λent=568 nm) and resolved as separate peaks. The ratio between these peaks reflects the activity of the compound at that concentration, in that well, under those conditions.
Inhibitors were dissolved in 100% DMSO at a stock concentration of 10 mM. A 100×, 10-point, 4-fold serial dilution of each inhibitor was created in 100% DMSO either manually or on a Hamilton STAR liquid handler, starting at a relevant concentration, usually 1 mM. A volume of 0.130 μL of each concentration was transferred to the relevant wells of a 384-well plate (Greiner 781 201) in duplicate using a TTPLabtech Mosquito nano-litre dispenser. Using a Multidrop Combi, the remaining constituents of the kinase reaction were added to the 130 nL of dosed compound as follows (see table below for final reaction details):
Enzyme activity assays at the ^APPKM for ATP or 1 mM ATP: In each well of a 384-well plate, 0.1-15 nM of untreated enzyme was incubated in a total of 13 μL of buffer (100 mM HEPES pH 7.5, 0.015% Brij 35, 10 mM MgCl2, 1 mM DTT) with 1.5 μM fluorescent peptid and 20-1000 μM ATP, at 25° C., for 60-180 minutes in the presence or absence of a dosed concentration series of compound (1% DMSO final concentration). The kinase reactions were stopped by the addition of 70 μl of Stop buffer (100 mM HEPES pH 7.5, 0.015% Brij 35, 35 mM EDTA and 0.2% of Coating Reagent 3 (Caliper Lifesciences)). The plates were read on a Caliper EZReader 2 as described above.

[2] = test system: expanded CD3+ T cells; experiment: T cell enhancement of cytokines: IL2 measurement (HTRF) in expanded CD3+ T cells stimulated with anti-CD3/anti-CD28; assay type: cell-based, human; details: IL-2 measurement
Description: T cells are isolated from whole blood of healthy donors by immunomagnetic negative selection following manufacture's protocol (StemCell Technologies, human T cell isolation kit). Purity of isolated cells is assessed by flow cytometry and yields 95-98% CD3^+ T cells. For expansion of T cells, 1×10^6 cells/well are plated in serum free cell expansion media (ThermoFisher) containing 30 U of recombinant human IL2 (R&D) and stimulated with 25 ul of CD3/CD28 beads (Invitrogen) in 24 well plates for 3-4 days. T cells are then expanded in 175 cm flasks and maintained at a cell density of 1 to 2.5×10^6 cells/ml days by addition of ⅔ of fresh media every 2-3 days. After 10-14 days, cells are frozen in BamBanker freezing media (Thermo) and stored in liquid nitrogen.
For IL2 measurement, expanded CD3^+ T cells are dispensed at 100K cells/well (cultured in X-VIVO 10 Serum-free media) and are stimulated with plate-bound anti-CD3 and soluble anti-CD28 in the presence of vehicle or compound of the disclosure at various concentrations for 24 h. As outlined in the manufacturer's protocol (Cisbio), 16 μL of conditioned media is transferred to a white 384-well low volume plate. Following a 24 h incubation with the anti-IL2 antibodies, the homogenous time resolved fluorescence (HTRF) is measured.

[3] = Homo sapiens, T-cell, class designation
[4] = Homo sapiens, T-cell, numeric value

MAP4K1 (HPK1), sequence (Q92918 whole entry): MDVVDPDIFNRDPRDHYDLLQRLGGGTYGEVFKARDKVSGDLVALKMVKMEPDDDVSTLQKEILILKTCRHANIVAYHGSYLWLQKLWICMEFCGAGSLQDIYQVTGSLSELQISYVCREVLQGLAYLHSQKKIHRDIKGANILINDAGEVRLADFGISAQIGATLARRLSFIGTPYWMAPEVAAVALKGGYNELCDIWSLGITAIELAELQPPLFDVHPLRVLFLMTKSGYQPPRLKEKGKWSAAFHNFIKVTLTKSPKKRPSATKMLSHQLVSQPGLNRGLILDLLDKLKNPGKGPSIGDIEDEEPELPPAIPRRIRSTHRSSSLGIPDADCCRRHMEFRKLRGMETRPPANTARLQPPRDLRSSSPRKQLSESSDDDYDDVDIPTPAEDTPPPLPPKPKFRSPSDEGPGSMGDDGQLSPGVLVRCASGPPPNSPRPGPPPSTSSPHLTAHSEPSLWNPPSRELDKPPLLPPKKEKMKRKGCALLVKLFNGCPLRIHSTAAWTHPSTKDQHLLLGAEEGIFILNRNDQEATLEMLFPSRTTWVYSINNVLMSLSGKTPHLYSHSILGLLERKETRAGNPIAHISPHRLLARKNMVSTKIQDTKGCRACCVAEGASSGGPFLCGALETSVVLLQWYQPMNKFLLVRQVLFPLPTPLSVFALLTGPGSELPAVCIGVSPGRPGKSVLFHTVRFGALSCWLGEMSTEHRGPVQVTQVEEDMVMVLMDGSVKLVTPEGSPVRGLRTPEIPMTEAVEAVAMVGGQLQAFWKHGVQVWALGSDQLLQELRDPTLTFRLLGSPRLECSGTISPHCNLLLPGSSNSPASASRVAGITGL

| SMILES | IC50 ([1]; class designation) | IC50 ([1]; numeric value) | EC50 ([2]; class designation) | EC50 ([2]; numeric value) | EC50 [2, 3] | EC50 [2, 4] |
| --- | --- | --- | --- | --- | --- | --- |
| COc1ncc(C(C)(C)N)c2cc(Nc3ccc4c(n3)[C@@H](C)COC4=O)ncc12 (single isomer, unassigned) [Compound 22] | 0.31 to 1 nM | 0.5 nM | 35.1 to 45 nM | 36.6 nM |  |  |
| COc1ncc(C(C)(C)N)c2cc(Nc3ccc4c(n3)[C@@H](C)COC4=O)ncc12 (single isomer, unassigned) [Compound 23] | < 0.3 nM | 0.11 nM | < 35 nM | 4.9 nM |  |  |
| COc1ncc(C(C)(C)N)c2cc(Nc3ccc4c(n3)C[C@@H](C)OC4=O)ncc12 (single isomer, unassigned) [Compound 24] | 0.31 to 1 nM | 0.47 nM | < 35 nM | 11.3 nM |  |  |
| COc1ncc(C(C)(C)N)c2cc(Nc3ccc4c(n3)C[C@H](C)OC4=O)ncc12 (single isomer, unassigned) [Compound 25] | < 0.3 nM | 0.29 nM | < 35 nM | 3.3 nM |  |  |
| COc1ncc(C(C)(C)N)c2cc(Nc3ccc4c(n3)[C@@H](C)[C@@H](C)OC4=O)ncc12 (single isomer, unassigned) [Compound 39] | 0.31 to 1 nM | 0.85 nM | < 35 nM | 16.2 nM |  |  |
| COc1ncc(C(C)(C)N)c2cc(Nc3ccc4c(n3)[C@H](C)[C@H](C)OC4=O)ncc12 (single isomer, unassigned) [Compound 40] | < 0.3 nM | 0.15 nM | < 35 nM | 4 nM |  |  |
| CCOc1ncc(C(C)(C)N)c2cc(Nc3ccc4c(n3)C[C@H](C)OC4=O)ncc12 (single isomer, unassigned) [Compound 41] | 0.31 to 1 nM | 0.57 nM | < 35 nM | 22.7 nM |  |  |
| CCOc1ncc(C(C)(C)N)c2cc(Nc3ccc4c(n3)C[C@@H](C)OC4=O)ncc12 (single isomer, unassigned) [Compound 42] | 0.31 to 1 nM | 0.86 nM | < 35 nM | 13.6 nM |  |  |
| CCOc1ncc(C(C)(C)N)c2cc(Nc3ccc4c(n3)[C@@H](C)COC4=O)ncc12 (single isomer, unassigned) [Compound 43] | < 0.3 nM | 0.23 nM | < 35 nM | 8.3 nM |  |  |
| CCOc1ncc(C(C)(C)N)c2cc(Nc3ccc4c(n3)[C@H](C)COC4=O)ncc12 (single isomer, unassigned) [Compound 44] | 1.1 to 10 nM | 1.2 nM | < 35 nM | 22 nM |  |  |
| CCOc1ncc(C(C)(C)N)c2cc(Nc3ccc4c(n3)[C@@H](C)[C@@H](C)OC4=O)ncc12 (single isomer, unassigned) [Compound 59] | 1.1 to 10 nM | 3.35 nM | > 55 nM | 56.7 nM |  |  |
| CCOc1ncc(C(C)(C)N)c2cc(Nc3ccc4c(n3)[C@H](C)[C@H](C)OC4=O)ncc12 (single isomer, unassigned) [Compound 60] | < 0.3 nM | 0.18 nM | < 35 nM | 10.3 nM |  |  |
| CC[C@@](C)(N)c1cnc(OC)c2cnc(Nc3ccc4c(n3)CC(C)(C)OC4=O)cc12 (single isomer, unassigned) [Compound 61] | < 0.3 nM | 0.15 nM | < 35 nM | 3.5 nM |  |  |
| C[C@@H]1OC(=O)c2ccc(Nc3cc4c([C@](C)(N)C5CC5)cnc(OC5CC5)c4cn3)nc2[C@H]1C (single isomer, unassigned) [Compound 75] |  | 0.09 nM |  |  | < 35 nM | 7.3 nM |
| C[C@@H]1c2nc(Nc3cc4c([C@](C)(N)C5CC5)ncc(OC5CC5)c4cn3)ccc2C(=O)OC1(C)C (single isomer, unassigned) [Compound 76] |  | 0.12 nM |  |  | < 35 nM | 6.5 nM |
| C[C@](N)(c1cnc(OC2CC2)c2cnc(Nc3ccc4c(n3)CCNC4=O)cc12)C1CC1 (single isomer, unassigned) [Compound 106] |  | 0.61 nM |  |  | 35.1 to 45 nM | 41.3 nM |

| SMILES | IC50 ([1]; class designation) | IC50 ([1]; numeric value) | EC50 ([2]; class designation) | EC50 ([2]; numeric value) | EC50 [2, 3] | EC50 [2, 4] |
| --- | --- | --- | --- | --- | --- | --- |
| C[C@H]1COC(=O)c2ccc(Nc3cc4c([C@](C)(N)C5CC5)cnc(OC5CC5)c4cn3)nc21 (single isomer, unassigned) [Compound 117] | < 0.3 nM |  |  |  | < 35 nM | 16 nM |
| C[C@@H]1COC(=O)c2ccc(Nc3cc4c([C@](C)(N)C5CC5)cnc(OC5CC5)c4cn3)nc21 (single isomer, unassigned) [Compound 118] | 1.1 to 10 nM | 1.28 nM | > 55 nM | 81.7 nM |  |  |
| CC[C@@](C)(N)c1cnc(OC2CC2)c2cnc(Nc3ccc4c(n3)CC(C)(C)OC4=O)cc12 (single isomer, unassigned) [Compound 132] | < 0.3 nM | 0.18 nM | < 35 nM | 12.9 nM |  |  |
| C[C@](N)(c1cnc(OC2CC2)c2cnc(Nc3ccc4c(n3)C3(CC3)COC4=O)cc12)C1CC1 (single isomer, unassigned) [Compound 146] |  | 0.25 nM |  |  | > 55 nM | 60.4 nM |
| C[C@](N)(c1cnc(OC2CC2)c2cnc(Nc3ccc4c(n3)CC3(CC3)OC4=O)cc12)C1CC1 (single isomer, unassigned) [Compound 147] |  | 0.27 nM |  |  | 35.1 to 45 nM | 45.2 nM |
| CC1(C)COC(=O)c2ccc(Nc3cc4c([C@](C)(N)C5CC5)cnc(OC5CC5)c4cn3)nc21 (single isomer, unassigned) [Compound 151] |  | 0.22 nM |  |  | < 35 nM | 27.3 nM |
| CC[C@]1(C)OC(=O)c2ccc(Nc3cc4c([C@](C)(N)C5CC5)cnc(OC5CC5)c4cn3)nc21 (single isomer, unassigned) [Compound 152] | 0.31 to 1 nM | 0.42 nM | > 55 nM | 54.4 nM |  |  |
| C[C@@H]1c2nc(Nc3cc4c([C@](C)(N)C5CC5)cnc(OC5CC5)c4cn3)ccc2C(=O)O[C@@H]1C (single isomer, unassigned) [Compound 154] | < 0.3 nM | 0.08 nM | < 35 nM | 11 nM |  |  |
| C[C@@H]1OC(=O)c2ccc(Nc3cc4c([C@](C)(N)C5CC5)cnc(OC5CC5)c4cn3)nc2[C@@H]1C (single isomer, unassigned) [Compound 155] | 0.31 to 1 nM | 0.97 nM | > 55 nM | 88.4 nM |  |  |
| C[C@H]1OC(=O)c2ccc(Nc3cc4c([C@](C)(N)C5CC5)cnc(OC5CC5)c4cn3)nc2C12CC2 (single isomer, unassigned) [Compound 167] | < 0.3 nM | 0.05 nM | < 35 nM | 9.4 nM |  |  |
| C[C@H]1OC(=O)c2ccc(Nc3cc4c([C@](C)(N)C5CC5)cnc(OC5CC5)c4cn3)nc2C1(C)C (single isomer, unassigned) [Compound 171] | < 0.3 nM | 0.07 nM | < 35 nM | 27.6 nM |  |  |
| CC[C@@](C)(N)c1cnc(OCC(F)(F)F)c2cnc(Nc3ccc4c(n3)[C@@H](C)[C@H](C)OC4=O)cc12 (single isomer, unassigned) [Compound 181] | < 0.3 nM |  |  |  | < 35 nM | 15.1 nM |
| CC[C@@H](N)c1cnc(C)c2cnc(Nc3ccc4c(n3)[C@@H](C)[C@H](C)OC4=O)cc12 [Compound 202] | 0.31 to 1 nM | 0.62 nM |  |  |  |  |
| CC[C@@H](N)c1cnc(OC)c2cnc(Nc3ccc4c(n3)[C@@H](C)[C@H](C)OC4=O)cc12 [Compound 203] | 0.31 to 1 nM | 0.5 nM |  |  |  |  |
| COC[C@@](C)(N)c1cnc(C)c2cnc(Nc3ccc4c(n3)[C@@H](C)C(C)(C)OC4=O)cc12 [Compound 206] | < 0.3 nM | 0.19 nM |  |  |  |  |
| CC[C@@H](N)c1ccc(Cl)c2cnc(Nc3ccc4c(n3)[C@@H](C)C(C)(C)OC4=O)cc12 [Compound 209] | 0.31 to 1 nM |  |  |  |  |  |
